# Test results: ChEMBL document CHEMBL1201862, “PubChem BioAssay data set” (2004)
#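 The compound was tested at five concentrations on cells cultured in 96-well plates, with a 48-hour exposure period. Here, GI50 denotes the concentration required for 50% inhibition of growth.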 Activity calls are given as the source filed them. Cut-off read from the data, not from the text of the source: active = GI50 up to about 1.1 µM and inactive = higher.
# Assays:
# Experiment in all cases: NCI tumour cell line growth inhibition, 48 h
# A498 = system: A498
# HL-60 = system: HL-60
# HT-29 = system: HT-29
# IGROV-1 = system: IGROV-1
# K562 = system: K562
# KM12 = system: KM12
# MDA-N = system: MDA-N
# Malme-3M = system: Malme-3M
# OVCAR-4 = system: OVCAR-4
# OVCAR-5 = system: OVCAR-5
# RPMI-8226 = system: RPMI-8226
# SF-539 = system: SF-539
# SK-MEL-28 = system: SK-MEL-28
# SK-MEL-5 = system: SK-MEL-5
# SNB-19 = system: SNB-19
# SNB-75 = system: SNB-75
# T47D = system: T47D
# TK-10 = system: TK-10
# U-251 = system: U-251
# UACC-62 = system: UACC-62
SMILES,GI50 (A498),GI50 (HL-60),GI50 (HT-29),GI50 (IGROV-1),GI50 (K562),GI50 (KM12),GI50 (MDA-N),GI50 (Malme-3M),GI50 (OVCAR-4),GI50 (OVCAR-5),GI50 (RPMI-8226),GI50 (SF-539),GI50 (SK-MEL-28),GI50 (SK-MEL-5),GI50 (SNB-19),GI50 (SNB-75),GI50 (T47D),GI50 (TK-10),GI50 (U-251),GI50 (UACC-62)
O=C(O)CSc1ccccc1C(=O)O,> 100 µM (inactive),6.03 µM (inactive),> 100 µM (inactive),> 100 µM (inactive),> 100 µM (inactive),> 100 µM (inactive),> 100 µM (inactive),> 100 µM (inactive),> 100 µM (inactive),> 100 µM (inactive),> 100 µM (inactive),> 100 µM (inactive),> 100 µM (inactive),> 100 µM (inactive),> 100 µM (inactive),> 100 µM (inactive),> 100 µM (inactive),22.8 µM (inactive),> 100 µM (inactive),> 100 µM (inactive)
NCC(=O)Nc1ccc(Cl)cc1C(=O)c1ccc[nH]1,> 63.1 µM (inactive),15.1 µM (inactive),25.5 µM (inactive),> 48.4 µM (inactive),10.5 µM (inactive),34 µM (inactive),23.4 µM (inactive),> 56.4 µM (inactive),21.7 µM (inactive),55.6 µM (inactive),5.57 µM (inactive),> 32.8 µM (inactive),> 93.5 µM (inactive),49 µM (inactive),> 100 µM (inactive),38.5 µM (inactive),54.1 µM (inactive),> 94.6 µM (inactive),15.2 µM (inactive),> 68.5 µM (inactive)
O=C(O)CCSCc1ccccc1,> 100 µM (inactive),> 100 µM (inactive),> 100 µM (inactive),> 100 µM (inactive),> 100 µM (inactive),> 100 µM (inactive),> 100 µM (inactive),> 100 µM (inactive),> 100 µM (inactive),> 100 µM (inactive),> 100 µM (inactive),> 100 µM (inactive),> 100 µM (inactive),> 100 µM (inactive),> 100 µM (inactive),> 100 µM (inactive),> 100 µM (inactive),> 100 µM (inactive),> 100 µM (inactive),> 100 µM (inactive)
Cc1nc2c(N3CCCC3)nc(N3CCNCC3)nc2nc1NCc1ccccc1,4.79 µM (inactive),3.61 µM (inactive),2.41 µM (inactive),3.95 µM (inactive),2.81 µM (inactive),2.84 µM (inactive),1.61 µM (inactive),2.04 µM (inactive),7.73 µM (inactive),13 µM (inactive),2.11 µM (inactive),2.65 µM (inactive),1.95 µM (inactive),1.65 µM (inactive),5.66 µM (inactive),0.578 µM (active),1.73 µM (inactive),4.88 µM (inactive),3.2 µM (inactive),2.79 µM (inactive)
CCNC(=S)NNC(=O)C12CC3CC(CC(C3)C1)C2,> 100 µM (inactive),> 100 µM (inactive),> 100 µM (inactive),> 100 µM (inactive),> 100 µM (inactive),> 100 µM (inactive),> 100 µM (inactive),> 100 µM (inactive),> 100 µM (inactive),> 100 µM (inactive),> 100 µM (inactive),> 100 µM (inactive),> 100 µM (inactive),> 100 µM (inactive),> 100 µM (inactive),64.1 µM (inactive),> 100 µM (inactive),> 100 µM (inactive),> 100 µM (inactive),> 100 µM (inactive)
O=C(O)c1ccccc1/C=C1\Cc2cc3c(cc2C1=O)CCC3,30.8 µM (inactive),6.59 µM (inactive),19.2 µM (inactive),23.6 µM (inactive),17.1 µM (inactive),19.2 µM (inactive),11.9 µM (inactive),26.9 µM (inactive),28.1 µM (inactive),57.1 µM (inactive),21.1 µM (inactive),29.1 µM (inactive),50.5 µM (inactive),18.1 µM (inactive),26.7 µM (inactive),3.57 µM (inactive),9.23 µM (inactive),17.8 µM (inactive),30.1 µM (inactive),16.9 µM (inactive)
N#Cc1c(N2CCCC2)ncn(Cc2ccccc2)c1=O,> 100 µM (inactive),> 100 µM (inactive),> 100 µM (inactive),> 100 µM (inactive),> 100 µM (inactive),> 100 µM (inactive),> 100 µM (inactive),> 100 µM (inactive),> 100 µM (inactive),> 100 µM (inactive),> 100 µM (inactive),> 100 µM (inactive),> 100 µM (inactive),> 100 µM (inactive),> 100 µM (inactive),> 100 µM (inactive),> 100 µM (inactive),> 100 µM (inactive),> 100 µM (inactive),> 100 µM (inactive)
Cc1sc2[nH]c(=O)oc(=O)c2c1C,> 100 µM (inactive),37 µM (inactive),> 71.9 µM (inactive),> 75.3 µM (inactive),> 96.4 µM (inactive),34.9 µM (inactive),58.2 µM (inactive),> 72.1 µM (inactive),67.6 µM (inactive),> 100 µM (inactive),41.2 µM (inactive),58.3 µM (inactive),> 71.8 µM (inactive),48.3 µM (inactive),> 100 µM (inactive),> 55.8 µM (inactive),> 86.5 µM (inactive),> 100 µM (inactive),51.4 µM (inactive),52.1 µM (inactive)
COc1ccc(/C(=N/N=c2[nH]c3ccccc3[nH]2)C(=O)O)cc1,> 100 µM (inactive),> 100 µM (inactive),> 100 µM (inactive),> 100 µM (inactive),> 100 µM (inactive),> 100 µM (inactive),> 100 µM (inactive),> 100 µM (inactive),> 100 µM (inactive),> 100 µM (inactive),> 100 µM (inactive),> 100 µM (inactive),> 100 µM (inactive),> 100 µM (inactive),> 100 µM (inactive),> 100 µM (inactive),> 100 µM (inactive),> 100 µM (inactive),> 100 µM (inactive),> 100 µM (inactive)
O=C(O)C1C(C(=O)O)C2C(=O)C=CC1N2Cc1ccccc1 (stereo not given),20.3 µM (inactive),1.77 µM (inactive),3.12 µM (inactive),6.5 µM (inactive),6.67 µM (inactive),3.61 µM (inactive),2.56 µM (inactive),3.68 µM (inactive),4.32 µM (inactive),6.22 µM (inactive),2.96 µM (inactive),2.8 µM (inactive),4.29 µM (inactive),5.32 µM (inactive),5.55 µM (inactive),2.65 µM (inactive),3.46 µM (inactive),2.84 µM (inactive),3.52 µM (inactive),7.96 µM (inactive)
NS(=O)(=O)c1ccc(/N=N/c2cnc(O)c(O)c2)cc1,> 100 µM (inactive),> 100 µM (inactive),> 100 µM (inactive),> 100 µM (inactive),> 100 µM (inactive),96.8 µM (inactive),> 100 µM (inactive),29.8 µM (inactive),50 µM (inactive),> 100 µM (inactive),> 100 µM (inactive),67.5 µM (inactive),> 100 µM (inactive),78.2 µM (inactive),52.4 µM (inactive),47.4 µM (inactive),85.7 µM (inactive),> 100 µM (inactive),20.8 µM (inactive),43.1 µM (inactive)
CCN(CC)/[N+]([O-])=N/OCOC(C)=O,> 100 µM (inactive),65.9 µM (inactive),> 100 µM (inactive),> 100 µM (inactive),> 100 µM (inactive),> 100 µM (inactive),> 100 µM (inactive),> 100 µM (inactive),> 100 µM (inactive),> 100 µM (inactive),> 100 µM (inactive),> 100 µM (inactive),> 100 µM (inactive),> 100 µM (inactive),> 100 µM (inactive),> 100 µM (inactive),> 100 µM (inactive),> 100 µM (inactive),> 100 µM (inactive),> 100 µM (inactive)
NC(=O)c1nnn(Cc2cc(Cl)c(C(=O)c3ccc(Cl)cc3)c(Cl)c2)c1N [CARBOXYAMIDOTRIAZOLE],13.7 µM (inactive),14.8 µM (inactive),22.8 µM (inactive),22.5 µM (inactive),8.05 µM (inactive),10.4 µM (inactive),10.7 µM (inactive),27.5 µM (inactive),22 µM (inactive),34.5 µM (inactive),25.4 µM (inactive),29.2 µM (inactive),27.9 µM (inactive),5.96 µM (inactive),24.4 µM (inactive),32.8 µM (inactive),17.7 µM (inactive),20.6 µM (inactive),18.2 µM (inactive),12.9 µM (inactive)
